In US10100056B2, “SHIP1 modulators and methods related thereto” (Aquinox Pharmaceuticals (Canada) Inc., priority 2013, dated 2018):

Target: T1, His-hSHIP1 enzyme (Homo sapiens, UniProt Q92835)
T1 construct: His
T1 sequence (Q92835 1-1189): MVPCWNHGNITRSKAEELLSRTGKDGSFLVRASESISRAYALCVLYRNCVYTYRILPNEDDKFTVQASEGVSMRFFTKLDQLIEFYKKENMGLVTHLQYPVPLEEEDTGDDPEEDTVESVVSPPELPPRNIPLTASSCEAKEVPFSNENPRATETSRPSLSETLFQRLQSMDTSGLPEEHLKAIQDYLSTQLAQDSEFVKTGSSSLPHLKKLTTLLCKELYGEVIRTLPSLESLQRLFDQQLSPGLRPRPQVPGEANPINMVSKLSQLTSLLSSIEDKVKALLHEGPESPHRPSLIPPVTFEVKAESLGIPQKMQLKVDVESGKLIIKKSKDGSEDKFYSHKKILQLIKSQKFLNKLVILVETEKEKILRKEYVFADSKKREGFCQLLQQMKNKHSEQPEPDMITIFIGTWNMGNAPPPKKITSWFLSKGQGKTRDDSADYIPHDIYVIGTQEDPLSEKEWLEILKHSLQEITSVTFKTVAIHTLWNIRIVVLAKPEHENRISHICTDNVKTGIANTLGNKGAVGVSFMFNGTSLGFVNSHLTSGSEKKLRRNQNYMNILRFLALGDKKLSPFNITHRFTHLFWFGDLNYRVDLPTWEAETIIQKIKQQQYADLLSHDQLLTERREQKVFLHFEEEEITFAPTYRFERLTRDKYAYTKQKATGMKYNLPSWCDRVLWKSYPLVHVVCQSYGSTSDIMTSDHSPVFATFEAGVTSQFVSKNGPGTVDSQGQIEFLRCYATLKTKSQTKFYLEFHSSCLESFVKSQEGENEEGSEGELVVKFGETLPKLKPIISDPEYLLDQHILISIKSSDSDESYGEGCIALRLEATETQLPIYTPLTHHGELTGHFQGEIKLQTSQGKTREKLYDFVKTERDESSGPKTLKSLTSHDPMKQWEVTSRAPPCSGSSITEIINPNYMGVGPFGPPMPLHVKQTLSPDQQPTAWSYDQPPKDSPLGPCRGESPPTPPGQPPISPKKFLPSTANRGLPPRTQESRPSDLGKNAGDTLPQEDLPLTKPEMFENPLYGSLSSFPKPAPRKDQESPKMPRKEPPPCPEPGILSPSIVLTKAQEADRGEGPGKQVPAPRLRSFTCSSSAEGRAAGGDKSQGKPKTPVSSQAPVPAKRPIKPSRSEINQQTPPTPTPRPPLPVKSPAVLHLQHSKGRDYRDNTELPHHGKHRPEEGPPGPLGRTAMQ
Test: His-hSHIP1 activity (phosphatase assay, IP4 substrate, Biomol Green)
Format: biochemical
Parameters: key to Scoring, Approach 2 (Initial velocity Ratio): +++: higher than reference or reference - 15%; ++: reference - 16% to reference - 30%; +: reference - 31% or lower; −: inhibitor
Conditions: second approach: ratio of initial velocities IP4 25/250 μM compared with reference compound; values without asterisk
Procedure: Test compounds are dissolved in 95% ethanol to form stock solutions. Before screening, the stock solutions are diluted with Phosphatase Assay Buffer (20 mM Tris-HCL, 10 mM MgCl2 pH 7.5, 0.02% Tween 20) to form working assay solutions that contain 10% ethanol. The assay is carried out on 96-well microtiter plates using a modified procedure of that reported by Ong et al., Blood 110, 1942-1949, 2007 and Yang et al., Org Lett 7, 1073-1076, 2005, both of which references are incorporated herein by reference in their entirety.
Data were generated by one of two variant methods. Test compounds are screened by one of two approaches described as follows. In the first approach, each reaction contains 5 μL of His-hSHIP1 enzyme (5-20 ng), 10 μL of the substrate, 1,3,4,5-inositol tetrakisphosphate (IP4; 50 μM final), 5 μL of Phosphatase Assay Buffer, and 5 µL of test compound at various concentrations in 10% ethanol (0-300 μM final). Control blanks are also prepared by replacing His-hSHIP1 enzyme, IP4, or test compounds with Phosphatase Assay Buffer. After adding the reaction components in a 96-well microtiter plate on ice, the reaction is mixed by briefly shaking the plate vigorously. The reaction is then incubated at 37° C. for 15 min with gentle shaking followed by addition of 100 μL of Biomol Green Reagent (BIOMOL, PA, USA) to terminate the reaction. The free phosphate released from IP4 by His-hSHIP1 binds to the Biomol Green Reagent, which turns the dye to green color. After incubating the mixture for 20 min at room temperature for color development, the absorbance is read with SpectraMax Plus 96-well plate reader (Molecular Devices, Sunnyvale, Calif., USA) at a wavelength of 650 nm.
In the second approach, a master mix is prepared that contains 50 μL of His-hSHIP1 enzyme (0.4-1.6 ng/μL final), 25 μL of the substrate, IP4 (25 or 250 μM final), and 50 μL of test compound in 3.3% ethanol (100 μL final). Control blanks are also prepared by replacing His-hSHIP1 enzyme, IP4, or test compounds with Phosphate Assay Buffer. […] Each reaction component is preincubated at 37° C. for 30 min before adding to a 96-well microtiter plate. The master mix is then incubated at 37° C. At time 0, 20, and 30 min, 25 μL of the master mix is removed and transferred to a new 96-well microtiter plate, to which 100 μL of Biomol Green Reagent is added to stop the reaction. After incubating the mixture for 20 min at room temperature for color development, the absorbance is read with SpectraMax Plus 96-well plate reader at a wavelength of 650 nm. Phosphate released is plotted against time to calculate the initial velocities (i.e., slope of the graph) at each IP4 concentration. The initial velocities are baseline corrected and the ratio of initial velocities (IP425/IP4250) is calculated and used to rate the test compounds.

Row | SMILES | Scoring, Approach 2 (Initial velocity Ratio)
1 | C=C1CC[C@H]2[C@H](CCNCc3ccc4c(c3)OCO4)[C@@H]([C@@]3(C)CC[C@H](O)C[C@@H]3O)CC[C@]12C [Cpd. No. 45, (1S,3S,4R)-4-((3aS,4S,5S,7aS)-4-(2-(benzo[d][1,3]dioxol-5-ylmethylamino)ethyl)-7a-methyl-1-methyleneoctahydro-1H-inden-5-yl)-4-methylcyclohexane-1,3-diol] | −
2 | CC1(C)CCC2=C1CC[C@H]([C@@]1(C)CC[C@H](O)C[C@@H]1CO)[C@H]2CNC(=O)c1ccccc1 [Cpd. No. 8, N-(((4R,5S)-5-((1R,2S,4S)-4-hydroxy-2-(hydroxymethyl)-1-methylcyclohexyl)-1,1-dimethyl-2,3,4,5,6,7-hexahydro-1H-inden-4-yl)methyl)benzamide] | +
3 | CC1(C)C=CC2=C1CC[C@H]([C@@]1(C)CC[C@H](O)C[C@@H]1CO)[C@H]2CO [Cpd. No. 65, (1S,3S,4R)-3-(hydroxymethyl)-4-((4R,5S)-4-(hydroxymethyl)-1,1-dimethyl-4,5,6,7-tetrahydro-1H-inden-5-yl)-4-methylcyclohexanol] | ++
4 | CC(=O)NC[C@H]1C2=C(CC[C@@H]1[C@@]1(C)CC[C@H](O)C[C@@H]1CO)C(C)(C)CC2 [Cpd. No. 4, N-(((4R,5S)-5-((1R,2S,4S)-4-hydroxy-2-(hydroxymethyl)-1-methylcyclohexyl)-1,1-dimethyl-2,3,4,5,6,7-hexahydro-1H-inden-4-yl)methyl)acetamide] | +
5 | C=C1CC[C@H]2[C@H](CNC(=O)c3cccnc3)[C@@H]([C@@]3(C)CC[C@H](O)C[C@@H]3CO)CC[C@]12C [Cpd. No. 69, N-(((3aS,4R,5S,7aS)-5-((1R,2S,4S)-4-hydroxy-2-(hydroxymethyl)-1-methylcyclohexyl)-7a-methyl-1-methyleneoctahydro-1H-inden-4-yl)methyl)nicotinamide] | +
6 | CC1(C)CCC2=C1CC[C@H]([C@@]1(C)CC[C@H](O)C[C@@H]1CO)[C@H]2CNS(C)(=O)=O [Cpd. No. 7, N-(((4R,5S)-5-((1R,2S,4S)-4-hydroxy-2-(hydroxymethyl)-1-methylcyclohexyl)-1,1-dimethyl-2,3,4,5,6,7-hexahydro-1H-inden-4-yl)methyl)methanesulfonamide] | +
7 | C=C1CC[C@H]2[C@H](Cn3cccn3)[C@@H]([C@@]3(C)CC[C@H](O)C[C@@H]3CO)CC[C@]12C [Cpd. No. 26, (1S,3S,4R)-4-((3aS,4R,5S,7aS)-4-((1H-pyrazol-1-yl)methyl)-7a-methyl-1-methyleneoctahydro-1H-inden-5-yl)-3-(hydroxymethyl)-4-methylcyclohexanol] | ++
8 | C=C1CC[C@H]2[C@H](COCc3ccccn3)[C@@H]([C@@]3(C)CC[C@H](O)C[C@@H]3CO)CC[C@]12C [Cpd. No. 61, (1S,3S,4R)-3-(hydroxymethyl)-4-methyl-4-((3aS,4R,5S,7aS)-7a-methyl-1-methylene-4-((pyridin-2-ylmethoxy)methyl)octahydro-1H-inden-5-yl)cyclohexanol] | ++
9 | CNC[C@H]1C2=C(CC[C@@H]1[C@@]1(C)CC[C@H](O)C[C@@H]1CO)C(C)(C)CC2 [Cpd. No. 5, (1S,3S,4R)-4-((4R,5S)-1,1-dimethyl-4-((methylamino)methyl)-2,3,4,5,6,7-hexahydro-1H-inden-5-yl)-3-(hydroxymethyl)-4-methylcyclohexanol] | +++
10 | C=C1CC[C@H]2[C@H](O)[C@@H]([C@@]3(C)CC[C@H](O)C[C@@H]3CCn3cccc3)CC[C@]12C [Cpd. No. 52, (3aR,4R,5R,7aS)-5-((1S,2S,4S)-2-(2-(1H-pyrrol-1-yl)ethyl)-4-hydroxy-1-methylcyclohexyl)-7a-methyl-1-methyleneoctahydro-1H-inden-4-ol] | −
11 | CC1(C)CCC2=C1CC[C@H]([C@@]1(C)CC[C@H](O)C[C@@H]1CO)[C@H]2CNCC1CC1 [Cpd. No. 2, (1S,3S,4R)-4-((4R,5S)-4-((cyclopropylmethylamino)methyl)-1,1-dimethyl-2,3,4,5,6,7-hexahydro-1H-inden-5-yl)-3-(hydroxymethyl)-4-methylcyclohexanol] | +
12 | C=C1CC[C@H]2[C@H](CNCc3ccccc3C)[C@@H]([C@@]3(C)CC[C@H](O)C[C@@H]3CO)CC[C@]12C [Cpd. No. 15, (1S,3S,4R)-3-(hydroxymethyl)-4-methyl-4-((3aS,4R,5S,7aS)-7a-methyl-4-((2-methylbenzylamino)methyl)-1-methyleneoctahydro-1H-inden-5-yl)cyclohexanol] | ++
13 | C=C1CC[C@H]2[C@H](CCNC(=O)c3ccc4c(c3)OCO4)[C@@H]([C@@]3(C)CC[C@H](O)C[C@@H]3O)CC[C@]12C [Cpd. No. 93, N-(2-((3aS,4S,5S,7aS)-5-((1R,2S,4S)-2,4-dihydroxy-1-methylcyclohexyl)-7a-methyl-1-methyleneoctahydro-1H-inden-4-yl)ethyl)benzo[d][1,3]dioxole-5-carboxamide] | ++
14 | C=C1CC[C@H]2[C@H](O)[C@@H]([C@@]3(C)CC[C@H](O)C[C@@H]3CCOc3cnccn3)CC[C@]12C [Cpd. No. 56, (3aR,4R,5R,7aS)-5-((1S,2S,4S)-4-hydroxy-1-methyl-2-(2-(pyrazin-2-yloxy)ethyl)cyclohexyl)-7a-methyl-1-methyleneoctahydro-1H-inden-4-ol] | −
15 | C=C1CC[C@H]2[C@H](COCc3ccccc3)[C@@H]([C@@]3(C)CC[C@H](O)C[C@@H]3CO)CC[C@]12C [Cpd. No. 67, (1S,3S,4R)-4-((3aS,4R,5S,7aS)-4-(benzyloxymethyl)-7a-methyl-1-methyleneoctahydro-1H-inden-5-yl)-3-(hydroxymethyl)-4-methylcyclohexanol] | ++
16 | C=C1CC[C@H]2[C@H](CCN(Cc3ccc(OC)cc3)Cc3ccc(OC)cc3)[C@@H]([C@@]3(C)CC[C@H](O)C[C@@H]3O)CC[C@]12C [Cpd. No. 43, (1S,3S,4R)-4-((3aS,4S,5S,7aS)-4-(2-(bis(4-methoxybenzyl)amino)ethyl)-7a-methyl-1-methyleneoctahydro-1H-inden-5-yl)-4-methylcyclohexane-1,3-diol] | ++
